What is called IC50 is the concentration at which inhibition is half-maximal.

The results in this text go back to US9409917B2, “Heterocyclic amide derivatives as P2X7 receptor antagonists” (ACTELION PHARMACEUTICALS LTD., priority 2012, dated 2016).

human recombinant P2X7 receptor, sequence (Q99572 whole entry): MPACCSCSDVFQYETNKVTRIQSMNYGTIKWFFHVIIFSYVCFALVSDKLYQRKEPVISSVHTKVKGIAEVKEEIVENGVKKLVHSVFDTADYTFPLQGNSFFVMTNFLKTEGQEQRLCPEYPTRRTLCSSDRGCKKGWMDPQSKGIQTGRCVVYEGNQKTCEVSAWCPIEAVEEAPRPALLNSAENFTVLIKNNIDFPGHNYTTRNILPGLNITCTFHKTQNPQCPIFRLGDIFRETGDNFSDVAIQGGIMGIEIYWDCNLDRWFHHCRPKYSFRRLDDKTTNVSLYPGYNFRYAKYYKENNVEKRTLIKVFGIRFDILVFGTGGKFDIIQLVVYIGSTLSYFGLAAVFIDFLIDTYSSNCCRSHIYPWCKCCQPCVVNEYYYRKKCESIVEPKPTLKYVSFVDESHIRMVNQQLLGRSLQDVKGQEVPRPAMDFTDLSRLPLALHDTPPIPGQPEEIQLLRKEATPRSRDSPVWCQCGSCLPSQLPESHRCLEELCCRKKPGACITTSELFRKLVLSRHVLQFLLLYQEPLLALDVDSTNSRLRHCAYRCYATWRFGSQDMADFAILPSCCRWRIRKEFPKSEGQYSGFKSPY

The first assay has as its target human recombinant P2X7 receptor (Homo sapiens (Human), UniProt Q99572). In words: YO-PRO assay: P2X7 receptor antagonistic activity (ATP-induced YO-PRO-1 uptake, FLIPR).
Conditions: not given
As to `O=C(NCc1ccc(Cl)cc1)C1CCOc2ncccc21` (racemic) [Example 35, rac-3,4-Dihydro-2H-pyrano[2,3-b]pyridine-4-carboxylic acid 4-chloro-benzylamide], the IC50 is 475 nM.
The same measure, in the same setting: the value for `COc1cc(Cl)cc(Cl)c1CNC(=O)C1COc2ncccc21` (racemic) [Example 26, rac-2,3-Dihydro-furo[2,3-b]pyridine-3-carboxylic acid 2,4-dichloro-6-methoxy-benzylamide] was 25.6 nM.
For `O=C(NCC1(O)CCCCC1)C1CCOc2ncccc21` (racemic) [Example 10, rac-3,4-Dihydro-2H-pyrano[2,3-b]pyridine-4-carboxylic acid (1-hydroxy-cyclohexylmethyl)-amide], the IC50 was determined as 3170 nM.
On to `O=C(NCc1c(Cl)cc(Cl)cc1Cl)C1COc2ncccc21` (racemic) [Example 114, rac-2,3-Dihydro-furo[2,3-b]pyridine-3-carboxylic acid 2,4,6-trichloro-benzylamide], for which the IC50 worked out at 12.5 nM.
Consider `O=C(NC(CO)C1CCCCCC1)C1COc2ncccc21` (single isomer, unassigned) [Example 14, rac-2,3-Dihydro-furo[2,3-b]pyridine-3-carboxylic acid (1-cycloheptyl-2-hydroxy-ethyl)-amide], for which the IC50 was 117 nM.
On to `O=C1CC(NC(=O)C2COc3ncccc32)c2ccccc21` (racemic) [Example 88, rac-2,3-Dihydro-furo[2,3-b]pyridine-3-carboxylic acid (3-oxo-indan-1-yl)-amide], for which the IC50 came to 1450 nM.
`O=C(NCc1c(Cl)cc(Cl)cc1C(F)(F)F)C1COc2ncccc21` (racemic) [Example 68, rac-2,3-Dihydro-furo[2,3-b]pyridine-3-carboxylic acid 2,4-dichloro-6-trifluoromethyl-benzylamide]: the IC50 came to 13.8 nM.
On to `O=C(NCc1cccc(Cl)c1Cl)C1CCOc2ncccc21` (racemic) [Example 34, rac-3,4-Dihydro-2H-pyrano[2,3-b]pyridine-4-carboxylic acid 2,3-dichloro-benzylamide], for which the IC50 was 10.7 nM.
Take `O=C(NCCc1ccc(Cl)cc1Cl)C1COc2ncccc21` (racemic) [Example 49, rac-2,3-Dihydro-furo[2,3-b]pyridine-3-carboxylic acid [2-(2,4-dichloro-phenyl)-ethyl]-amide]: the IC50 stood at 157 nM.
With `O=C(NCC(c1cnc(C(F)(F)F)nc1)N1CCOCC1)C1COc2ncccc21` (single isomer, unassigned) [Example 60, rac-2,3-Dihydro-furo[2,3-b]pyridine-3-carboxylic acid [2-morpholin-4-yl-2-(2-trifluoromethyl-pyrimidin-5-yl)-ethyl]-amide], the IC50 was determined as 29 nM.
With `O=C1CC(NC(=O)C2COc3ncccc32)c2ccccc21` (racemic) [Example 89, rac-2,3-Dihydro-furo[2,3-b]pyridine-3-carboxylic acid (3-oxo-indan-1-yl)-amide], the IC50 was determined as 2510 nM.
As for `[2H]C([2H])([2H])c1cc(Cl)cc(Cl)c1CNC(=O)C1COc2ncccc21` (racemic) [Example 96, rac-2,3-Dihydro-furo[2,3-b]pyridine-3-carboxylic acid 2,4-dichloro-6-trideuteromethyl-benzylamide], the IC50 came to 2.7 nM.
On to `COCc1cc(Cl)cc(Cl)c1CNC(=O)C1COc2ncccc21` (racemic) [Example 72, rac-2,3-Dihydro-furo[2,3-b]pyridine-3-carboxylic acid 2,4-dichloro-6-methoxymethyl-benzylamide], for which the IC50 amounted to 14.6 nM.
With `O=C(NCC1(c2ccccc2)CCCCC1)C1CCOc2ncccc21` (racemic) [Example 54, rac-3,4-Dihydro-2H-pyrano[2,3-b]pyridine-4-carboxylic acid (1-phenyl-cyclohexylmethyl)-amide], the IC50 is 25.8 nM.
As to `O=C(NCc1c(Cl)cc(Cl)cc1C1CC1)C1COc2ncccc21` (racemic) [Example 21, rac-2,3-Dihydro-furo[2,3-b]pyridine-3-carboxylic acid 2,4-dichloro-6-cyclopropyl-benzylamide], the IC50 worked out at 12.9 nM.

The same assay, now with this note: read-out: IC50 [nM], antagonistic activities with respect to the P2X7 receptor.
As for `Cc1cc(Cl)cc(Cl)c1CNC(=O)C1COc2c1ccc[n+]2[O-]` (racemic) [Example 115, rac-7-Oxy-2,3-dihydro-furo[2,3-b]pyridine-3-carboxylic acid 2,4-dichloro-6-methyl-benzylamide], the IC50 came to 35.4 nM.

The assay is the same for the next values; noted with them: read-out: IC50 [nM], antagonistic activities with respect to the P2X7 receptor; HEK-293 cells expressing human recombinant P2X7 receptor; YO-PRO-1 fluorescence; ATP 250 μM, 90 minutes; highest concentration 10 μM.
As for `O=C(N[C@@H]1CCCc2ccccc21)C1COc2ncccc21` (stereo partly drawn) [Example 107, 2,3-dihydrofuro[2,3-b]pyridine-3-carboxylic acid ((R)-1,2,3,4-tetrahydronaphthalen-1-yl)-amide], the IC50 was 1220 nM.
`O=C(NCC(c1cnc(C(F)(F)F)nc1)N1CCOCC1)C1COc2ncccc21` (single isomer, unassigned) [Example 81, 2,3-Dihydro-furo[2,3-b]pyridine-3-carboxylic acid [2-morpholin-4-yl-2-(2-trifluoromethyl-pyrimidin-5-yl)-ethyl]-amide]: the IC50 was found to be 7520 nM.
`Cc1cc(Cl)cc(Cl)c1CNC(=O)C1CCOc2ncccc21` (single isomer, unassigned) [Example 18, 3,4-Dihydro-2H-pyrano[2,3-b]pyridine-4-carboxylic acid 2,4-dichloro-6-methyl-benzylamide]: the half-maximal inhibitory concentration (IC50) stood at 1.6 nM.
The same measure, in the same setting: the value for `O=C(NC(CO)C1CCCCCC1)C1CCOc2ncccc21` (centres unmarked) [Example 52, 3,4-Dihydro-2H-pyrano[2,3-b]pyridine-4-carboxylic acid (1-cycloheptyl-2-hydroxy-ethyl)-amide] was 276 nM; that for `O=C(N[C@@H]1CCCc2cccc(Cl)c21)C1COc2ncccc21` (stereo partly drawn) [Example 112, 2,3-Dihydro-furo[2,3-b]pyridine-3-carboxylic acid ((R)-8-chloro-1,2,3,4-tetrahydro-naphthalen-1-yl)-amide] was 9.5 nM; that for `O=C(NCC(c1cnc(C(F)(F)F)nc1)N1CCOCC1)C1COc2ncccc21` (single isomer, unassigned) [Example 82, 2,3-Dihydro-furo[2,3-b]pyridine-3-carboxylic acid [2-morpholin-4-yl-2-(2-trifluoromethyl-pyrimidin-5-yl)-ethyl]-amide] was 2230 nM.
On to `O=C(NCc1c(Cl)cc(Cl)cc1Br)C1COc2ncccc21` (single isomer, unassigned) [Example 79, 2,3-Dihydro-furo[2,3-b]pyridine-3-carboxylic acid 2-bromo-4,6-dichloro-benzylamide], for which the IC50 turned out to be 51.1 nM.
